System: HEC-1A cells
Experiment: Cytokine/chemokine MultiPlex assay (BioPlex 200) of HEC-1A secretion
Type: cell-based
Conditions: 24 hours
Excerpt: In the model as provided in this example, a method to assess the pro-inflammatory character of antivirals intended to be applied as mucosal topicals was used.
Epithelial cells are capable of secreting a set of molecules called cytokines and chemokines, which are responsible for the recruitment and activation of immune cells at the site of secretion. This process can be deleterious in the context of sexual transmission of HIV-1 because the recruited cells are the preferred targets of the virus. […] A microbicide candidate should therefore not promote inflammation by activating the production of this type of molecule by the cells directly in contact with the substance (epithelial cells). These secretions can be deleterious in the context of sexual transmission of HIV-1 or HPV and other papillomaviruses because the recruited cells are the preferred targets of the virus. A microbicide candidate must thus not promote inflammation by activating the production of these types of molecules by the cells in contact with the substance (epithelial cells).
After 24 hours of incubation, a panel of 48 inflammation-related cytokines/chemokines is assayed by MultiPlex (BioPlex 200 BioRad) in the basal medium.

zinc tetra-ascorbo-camphorate [C14]
IL-12ρ40 (10 μM): 0 pg/mL
IL-13 (10 μM): 4.145 pg/mL
IL-15 (10 μM): 0 pg/mL
IL-16 (10 μM): 0 pg/mL
IL-17 (10 μM): 0 pg/mL
IL-18 (10 μM): 0 pg/mL
IP-10 (10 μM): 7.165 pg/mL
LIF (10 μM): 0 pg/mL
M-CSF (10 μM): 4.805 pg/mL
MCP-1 (10 μM): 7.55 pg/mL
MCP-3 (10 μM): 0 pg/mL
MIF (10 μM): 1.06 pg/mL
MIG (10 μM): 3.76 pg/mL
MIP-1α (10 μM): 2.065 pg/mL
MIP-1β (10 μM): 1.555 pg/mL
PDGF-β (10 μM): 2.805 pg/mL
RANTES (10 μM): 12.995 pg/mL
SCF (10 μM): 0 pg/mL
SCGF-β (10 μM): 255.82 pg/mL
SDF-1α (10 μM): 11.41 pg/mL
TNF-α (10 μM): 6.985 pg/mL
TNF-β (10 μM): 0 pg/mL
TRAIL (10 μM): 5.025 pg/mL
VEGF (10 μM): 1530.905 pg/mL
β-NGF (10 μM): 0.86 pg/mL
CTACK (100 μM): 2.585 pg/mL
Eotaxin (100 μM): 0 pg/mL
FGF (100 μM): 1.635 pg/mL
G-CSF (100 μM): 1.885 pg/mL
GM-CSF (100 μM): 9.51 pg/mL
GROα (100 μM): 0 pg/mL
HGF (100 μM): 4.58 pg/mL
IFN-α2 (100 μM): 4.08 pg/mL
IFN-γ (100 μM): 89.85 pg/mL
IL-1rα (100 μM): 10.3 pg/mL
IL-1α (100 μM): 0 pg/mL
IL-1β (100 μM): 0.34 pg/mL
IL-2 (100 μM): 0.02 pg/mL
IL-2rα (100 μM): 3.245 pg/mL
IL-3 (100 μM): 5.495 pg/mL
IL-4 (100 μM): 0.33 pg/mL
IL-5 (100 μM): 0 pg/mL
IL-6 (100 μM): 0.255 pg/mL
IL-7 (100 μM): 4.495 pg/mL
IL-8 (100 μM): 783.255 pg/mL
IL-9 (100 μM): 22.305 pg/mL
IL-10 (100 μM): 3.505 pg/mL
IL-12 (100 μM): 99.355 pg/mL
IL-12ρ40 (100 μM): 0 pg/mL
IL-13 (100 μM): 3.735 pg/mL
IL-15 (100 μM): 0 pg/mL
IL-16 (100 μM): 0 pg/mL
IL-17 (100 μM): 0 pg/mL
IL-18 (100 μM): 0 pg/mL
IP-10 (100 μM): 0 pg/mL
LIF (100 μM): 0 pg/mL
M-CSF (100 μM): 4.725 pg/mL
MCP-1 (100 μM): 5.3 pg/mL
MCP-3 (100 μM): 0 pg/mL
MIF (100 μM): 1.06 pg/mL
MIG (100 μM): 2.75 pg/mL
MIP-1α (100 μM): 1.77 pg/mL
MIP-1β (100 μM): 1.26 pg/mL
PDGF-β (100 μM): 3.58 pg/mL
RANTES (100 μM): 12.205 pg/mL
SCF (100 μM): 0 pg/mL
SCGF-β (100 μM): 228.825 pg/mL
SDF-1α (100 μM): 11.41 pg/mL
TNF-α (100 μM): 5.465 pg/mL
TNF-β (100 μM): 0 pg/mL
TRAIL (100 μM): 5.025 pg/mL
VEGF (100 μM): 1469.495 pg/mL
β-NGF (100 μM): 0.95 pg/mL
CTACK (500 μM): 3.425 pg/mL
Eotaxin (500 μM): 3.21 pg/mL
FGF (500 μM): 1.925 pg/mL
G-CSF (500 μM): 2.3 pg/mL
GM-CSF (500 μM): 7.53 pg/mL
GROα (500 μM): 2.75 pg/mL
HGF (500 μM): 6.22 pg/mL
IFN-α2 (500 μM): 3.58 pg/mL
IFN-γ (500 μM): 98.775 pg/mL
IL-1rα (500 μM): 14.09 pg/mL
IL-1α (500 μM): 0 pg/mL
IL-1β (500 μM): 0.415 pg/mL
IL-2 (500 μM): 0.28 pg/mL
IL-2rα (500 μM): 4.39 pg/mL
IL-3 (500 μM): 6.785 pg/mL
IL-4 (500 μM): 0.295 pg/mL
IL-5 (500 μM): 0 pg/mL
IL-6 (500 μM): 0.79 pg/mL
IL-7 (500 μM): 4.66 pg/mL
IL-8 (500 μM): 1219.13 pg/mL
IL-9 (500 μM): 30.4 pg/mL
IL-10 (500 μM): 4.165 pg/mL
IL-12 (500 μM): 121.285 pg/mL
IL-12ρ40 (500 μM): 0 pg/mL
IL-13 (500 μM): 4.555 pg/mL
IL-15 (500 μM): 0 pg/mL
IL-16 (500 μM): 0 pg/mL
IL-17 (500 μM): 0 pg/mL
IL-18 (500 μM): 0 pg/mL
IP-10 (500 μM): 10.765 pg/mL
LIF (500 μM): 0 pg/mL
M-CSF (500 μM): 3.995 pg/mL
MCP-1 (500 μM): 5.165 pg/mL
MCP-3 (500 μM): 0 pg/mL
MIF (500 μM): 5.26 pg/mL
MIG (500 μM): 3.09 pg/mL
MIP-1α (500 μM): 2.04 pg/mL
MIP-1β (500 μM): 1.655 pg/mL
PDGF-β (500 μM): 6.19 pg/mL
RANTES (500 μM): 13.835 pg/mL
SCF (500 μM): 0 pg/mL
SCGF-β (500 μM): 128.865 pg/mL
SDF-1α (500 μM): 11.41 pg/mL
TNF-α (500 μM): 10.49 pg/mL
TNF-β (500 μM): 0 pg/mL
TRAIL (500 μM): 3.43 pg/mL
VEGF (500 μM): 1814.38 pg/mL
β-NGF (500 μM): 0.995 pg/mL
